In article PMC11554305, “Functional identification of soluble uric acid as an endogenous inhibitor of CD38” (eLife, 2024):
Each block holds one compound with its values, some of them ahead of it.

Assays:
[1] = system: CD38; test: Hydrolase and cyclase activities of human and murine CD38; assay type: biochemical
Method: (§1) The hydrolase activity of CD38 was measured according to a previous report ([de Oliveira et al., 2018]) with minor modifications. CD38 hydrolase activity was measured using 50 μM ε-NAD^+ as a substrate in hydrolase reaction buffer (250 mM sucrose, 40 mM Tris-HCl, pH 7.4). Briefly, cells or tissues were directly homogenized in blank reaction buffer on ice, and recombinant hCD38 was diluted in blank reaction buffer for subsequent assays. The tissue homogenates were centrifuged to collect the supernatant for enzyme assays. The loading volume of enzyme was 4–30 μL, the total volume of the reaction system was 3 mL. To detect enzyme inhibition, except when specified, the ligands were directly dissolved in hydrolase reaction buffer before pH adjustment, after which, the pH was immediately adjusted to 7.4. All reaction buffers, with or without ligands, were freshly prepared before each assay. For measurement of hydrolase activity, 3 mL reaction buffer containing enzyme, ε-NAD^+, and ligands at indicated concentrations was maintained at 37°C with constant stirring.
(§2) The cyclase activity of CD38 was measured as previously described ([Higashida et al., 1999]; [Jin et al., 2007]). CD38 cyclase activity was measured using 60 μM NGD as a substrate in cyclase reaction buffer (100 mM KCl, 10 μM CaCl2, and 50 mM Tris-HCl, pH 6.6). Tissues were cut into pieces and suspended in the buffer (5 mM MgCl2, 10 mM Tris-HCl, pH 7.3) at 4°C for 30 min. Then, the suspension was homogenized on ice, and the supernatant was collected after centrifugation. To collect the crude membrane fractions, the supernatant was centrifuged at 105,000×g for 30 min. The final pellet was resuspended in 10 mM Tris-HCl solution (pH 6.6) for cyclase assay. Homogenates of THP-1 or A549 cells, and recombinant hCD38 were used directly for cyclase assays. The loading volume of enzyme was 4–20 μL, the total volume of reaction system was 3 mL. To detect enzyme inhibition, except when specified, the ligands were directly dissolved in cyclase reaction buffer before pH adjustment, after which, the pH was immediately adjusted to 6.6. All reaction buffers, with or without ligands, were freshly prepared before each assay. For measurement of cyclase activity, 3 mL reaction buffer containing enzyme, NGD, and ligands at indicated concentrations was maintained at 37°C with constant stirring.
(§3) The reaction buffer for hydrolase or cyclase assays was excited at 300 nm, and fluorescence emission was measured every second at 410 nm by Shimazu RF-6000 spectrofluorometer. Hydrolase or cyclase activity was calculated from the linear portion of the time course by fitting a linear function to the data points recorded within 5 min.
Guanosine was dissolved in DMSO and diluted in the reaction buffer for subsequent assays.
For reversibility test, recombinant hCD38 was pre-incubated for 30 min in four conditions: (1) control reaction buffer; (2) in the presence of 100 μM substrate (ε-NAD^+ or NGD); (3) 500 μM sUA; (4) both substrate and sUA. Subsequently, the enzyme was diluted 100-fold in reaction buffer in the presence or absence of 500 μM sUA for activity assays using ε-NAD^+ or NGD. Naïve THP-1 and A549 cells were incubated with RPMI-1640 medium in the presence or absence of 500 μM sUA for 2 hr. The cells were collected and homogenized in the reaction buffer on ice with or without 500 μM sUA, samples were then diluted 100-fold in reaction buffer with or without 500 μM sUA for enzyme assay. Control group was not treated with sUA in all steps; sUA group was treated with sUA in each step; sUA release group was treated with sUA prior to dilution in sUA-free buffer for enzyme assays.

[2] = target: T1, poly(ADP-ribose) polymerase (PARP) (Homo sapiens, UniProt P09874); test: PARP activity (colorimetric kit); assay type: biochemical; settings: Figure 3—figure supplement 2C
T1 construct: purchased R&D Systems 4677-096-K
T1 sequence (P09874 whole entry): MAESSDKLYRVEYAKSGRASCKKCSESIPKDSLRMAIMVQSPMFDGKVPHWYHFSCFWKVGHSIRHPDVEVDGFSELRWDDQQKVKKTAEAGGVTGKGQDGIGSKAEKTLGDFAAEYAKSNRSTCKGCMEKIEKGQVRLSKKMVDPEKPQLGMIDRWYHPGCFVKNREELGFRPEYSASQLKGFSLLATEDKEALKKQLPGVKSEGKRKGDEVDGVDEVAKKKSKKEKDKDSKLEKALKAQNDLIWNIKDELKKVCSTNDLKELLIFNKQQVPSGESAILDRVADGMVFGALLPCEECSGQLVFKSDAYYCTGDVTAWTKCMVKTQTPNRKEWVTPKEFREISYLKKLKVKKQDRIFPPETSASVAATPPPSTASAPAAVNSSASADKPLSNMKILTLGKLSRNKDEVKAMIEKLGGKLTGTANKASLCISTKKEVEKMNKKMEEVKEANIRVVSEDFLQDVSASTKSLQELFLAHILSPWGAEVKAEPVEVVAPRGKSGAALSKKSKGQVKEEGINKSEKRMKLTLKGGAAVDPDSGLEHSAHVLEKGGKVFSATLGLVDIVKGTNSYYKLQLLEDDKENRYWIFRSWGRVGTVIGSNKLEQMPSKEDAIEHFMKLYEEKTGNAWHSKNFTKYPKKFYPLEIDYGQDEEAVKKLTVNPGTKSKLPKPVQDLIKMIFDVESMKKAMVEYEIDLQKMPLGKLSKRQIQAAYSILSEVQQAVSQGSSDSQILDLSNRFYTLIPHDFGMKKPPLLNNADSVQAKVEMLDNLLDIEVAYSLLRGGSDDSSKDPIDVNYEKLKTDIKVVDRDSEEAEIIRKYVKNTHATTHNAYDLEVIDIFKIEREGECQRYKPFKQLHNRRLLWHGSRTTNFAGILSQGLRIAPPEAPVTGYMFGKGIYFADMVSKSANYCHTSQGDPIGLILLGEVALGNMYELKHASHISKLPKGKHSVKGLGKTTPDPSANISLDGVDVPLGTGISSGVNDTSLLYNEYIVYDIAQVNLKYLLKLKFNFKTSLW
Method: The activities of NAMPT and PARP were measured using commercial kits, HT Universal Colorimetric PARP Assay Kit, and CycLex NAMPT Colorimetric Assay Kit Ver.2. The solutions of ligands were freshly prepared (pH was adjusted to 7.4) and were immediately used for enzyme assays.

[3] = target: T2, murine CD38 (Mus musculus, UniProt P56528); test: CD38 cyclase activity in tissues from WT mice; assay type: biochemical; settings: for Ki: WT mice, Figure 1E
T2 construct: from tissue; host or cells: WT ICR mouse tissues (brain, liver, lung, heart, kidney, spleen, ileum, skeletal muscle)
T2 sequence (P56528 1-304): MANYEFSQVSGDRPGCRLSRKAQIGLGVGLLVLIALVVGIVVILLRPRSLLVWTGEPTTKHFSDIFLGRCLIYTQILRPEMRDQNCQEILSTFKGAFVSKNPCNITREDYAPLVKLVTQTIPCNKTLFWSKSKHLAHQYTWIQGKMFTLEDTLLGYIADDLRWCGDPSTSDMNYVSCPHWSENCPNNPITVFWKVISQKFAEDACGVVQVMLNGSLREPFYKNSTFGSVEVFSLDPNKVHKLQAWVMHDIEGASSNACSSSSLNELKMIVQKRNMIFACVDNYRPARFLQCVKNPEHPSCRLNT
Method: as §2, §3

[4] = target: T2, murine CD38; test: CD38 hydrolase activity in tissues from WT mice; assay type: biochemical; settings: for Ki: WT mice, Figure 1E
Method: as §1, §3

[5] = target: uricase; set-up: method as in Fridovich, 1965; settings: ref Fridovich, 1965; cited from earlier work
[6] = lung tissues from WT mice, OA 0–5 mM

- Effect on hydrolase and cyclase activities of human and murine CD38 ([1]; sUA precursors and metabolite, above physiological levels, Figure 2B, C and supplement 1A–C): hardly inhibited
Structure (SMILES): O=c1[nH]cnc2c1ncn2[C@@H]1O[C@H](CO)[C@@H](O)[C@H]1O [Inosine, inosine, reference compound]

- Effect on PARP activity [2]: without affecting the activities
- Ki ([3]; Brain): 71.1 µM
- Ki ([3]; Heart): 70.9 µM
- Ki ([3]; Ileum): 72.1 µM
- Ki ([3]; Kidney): 78.2 µM
- Ki ([3]; Liver): 76.7 µM
- Ki ([3]; Lung): 77 µM
- Ki ([3]; Skeletal muscle): 93.3 µM
- Ki ([3]; Spleen): 78.1 µM
- Ki ([4]; Brain): 83.5 µM
- Ki ([4]; Heart): 80.6 µM
- Ki ([4]; Ileum): 79.9 µM
- Ki ([4]; Kidney): 84.7 µM
- Ki ([4]; Liver): 77.3 µM
- Ki ([4]; Lung): 82.5 µM
- Ki ([4]; Skeletal muscle): 83 µM
- Ki ([4]; Spleen): 70.5 µM
- Ki ([1]; span over all enzyme sources): 57.1 to 93.3 µM
Structure (SMILES): O=c1[nH]c(=O)c2[nH]c(=O)[nH]c2[nH]1 [sUA, uric acid]

- IC50 [3, 6]: 4470 µM
- IC50 [4, 6]: 2200 µM
Structure (SMILES): O=C(O)c1nc(=O)[nH]c(=O)[nH]1 [OA, oxonic acid, reference compound]
- Ki for uricase [5]: nanomolar range
